Measurements from US7964557B2, “Inhibition of wet type age related macular degeneration (AMD) by adiponectin or acrp 30” (University of Louisville Research Foundation, Inc., priority 2005, dated 2011).

B1: rAPN: mouse recombinant adiponectin polypeptide of about 30 kDa obtained from BioVision Research Products (protein, UniProt Q60994 18-247, looked up)
Adiponectin: EDDVTTTEELAPALVPPPKGTCAGWMAGIPGHPGHNGTPGRDGRDGTPGEKGEKGDAGLLGPKGETGDVGMTGAEGPRGFPGTPGRKGEPGEAAYVYRSAFSVGLETRVTVPNVPIRFTKIFYNQQNHYDGSTGKFYCNIPGLYYFSYHITVYMKDVKVSLFKKDKAVLFTYDQYQEKNVDQASGSVLLHLEVGDQVWLQVYGDGDHNGLYADNVNDSTFTGFLLYHDTN

Legend:
[1] = test system: laser-induced CNV; experiment: laser-induced mouse model of choroidal neovascularization (CNV), CNV size by confocal microscopy; format: in vivo, C57BL/6 mice; settings: for reduction in CNV size compared to control: p<0.005; for neovascular complex in laser spots, confocal micrograph: compared to control; for reduction of CNV size compared to control mice: injected subretinally into the eye, 5 μg; for reduction of CNV size compared to control mice / decrease in CNV size compared to control mice: control PBS; for decrease in CNV size compared to control mice: day 7 after laser; for effect on CNV size compared among adiponectin peptides (words): mouse model of CNV, route not stated
Procedure: Animals (C57BL/6 mice) were divided into 3 groups. CNV was induced by laser photocoagulation in group 1 (n=5) with the krypton red laser (50 μm spot size; 0.05 s duration; 250 mW), as previously described (Bora et al. 2003 Proc. Natl. Acad. Sci. USA 100:2679-2685; Bora et al. 2005 J. Immunol. 174:491-497) and no APN was administered to these mice. Three laser spots were placed in each eye close to the optic nerve. In group 2 (n=5), the mice were treated, i.p., with 25 μg of rAPN, one day before laser photocoagulation and every day after laser treatment until day 6. Group 3 animals received subretinal injections on days 0, 1, and 3 in one eye, the other eye received PBS as control. All the experiments were repeated three times.
We injected 50 μg peptide NH2-LQVYGDGDHNGLYADNVN-COOH (SEQ ID NO: 1, synthesized at Peptide Biochemical Research Inc. Seattle, USA; dissolved in PBS) intraperitoneally (i.p.) to mice (n=5) as well as intravitreally (i-vit.). Six i.p. injections were given, one preceding laser treatment and five following the laser treatment. Control group was given sterile PBS. One group (n=5) was photocoagulated on day 0 and on day 1 a single 30 μg i-vit. injection was given. All the experiments were repeated three times. Mice were sacrificed following perfusion with FITC dextran on day 7 and eyes removed and fixed in formaldehyde. Choroidal-scleral flat mounts were prepared and processed for immunostaining. Laser confocal micrographs were used to measure the size of CNV by Image-Pro-Plus software (Media Cybernetics, Inc. Silver Spring, Md.).
Seven days after laser treatment, the eyes of all animals were perfused with 1 ml of PBS containing 50 mg/ml fluorescein-labeled dextran (FITC-dextran; average molecular mass, 2×10^6; Sigma-Aldrich) and the animals were sacrificed. The eyes were harvested and fixed in 10% phosphate-buffered formalin, and retinal pigment epithelium (RPE)-choroid-scleral flat mounts were prepared as previously described (Bora et al. 2003 supra; Bora et al. 2005 supra.). RPE-choroid-scleral flat mounts were stained for elastin using a mAb specific for elastin (1.0 mg/ml; 1/2000 dilution; Sigma-Aldrich) followed by a Cy3-labeled secondary Ab (1.0 mg/ml; 1/2000 dilution; Sigma-Aldrich). The incidence and the size of CNV were determined by confocal microscopy. The size of the CNV complex was graded by morphometric analysis of the images (MetaMorph Image Analysis software package; Universal Imaging) obtained from confocal microscopy.

[2] = test system: VEGF; experiment: RT-PCR of VEGF mRNA in choroids of laser-treated mice; format: in vivo, C57BL/6 mice; settings: APN administered vs laser-treated mice without APN; FIG. 5; listed as APN
Procedure: Ten laser spots were placed in each eye of C57BL/6 mice as described below. Animals from each group (n=10/each time point) were sacrificed at days 1, 3, 5, and 7 post-laser treatment, RPE-choroid-scleral tissues harvested from the enucleated eyes were pooled separately for each time point and without laser treatment (control), and total RNA was prepared using SV Total RNA Isolation kit (Promega, Madison, Wis.). Equal amounts of the total RNA (0.2 μg) were used to detect the mRNA levels of GAPDH, VEGF, β-FGF and APN by RT-PCR using the reagents purchased from Applied Biosystems. The sense and antisense oligonucleotide primers were synthesized at Integrated DNA Technologies, and PCR used 30 cycles. The negative controls consisted of omission of RNA or reverse transcriptase in the reaction mixture. PCR products were analyzed on a 2% agarose gel and were examined by using the Molecular Analyst/PC program (Bio-Rad). RT-PCR was conducted using the following primers: GAPDH (forward (F), 5′-[…]-3′, SEQ ID NO; 5; reverse (R), 5′-[…]-3′, SEQ ID NO: 6); VEGF (F, 5′-GCGGGCTGCCTCGCAGTC-3′, SEQ ID NO: 7; R, 5′-[…]-3′, SEQ ID NO: 8); β-FGF (F, 5′-[…]-3′, SEQ ID NO: 9; R, 5′-[…]-3′, SEQ ID NO: 10); TGF-β2 (F, 5′-[…]-3′, SEQ ID NO: 11; R, 5′-[…]-3′, SEQ ID NO: 12); APN (F, 5′-[…]-3′, SEQ ID NO: 13; R, 5′-[…]-3′, SEQ ID NO: 14)

[3] = intraperitoneal (i.p.) injection, 25 μg rAPN or 50 μg 18 mer peptide

Molecule	reduction in CNV size compared to control ([1]; i-vit injection, single dose a day after laser, FIG. 7B)	reduction in CNV size compared to control ([1]; i.p. injection, 50 μg/mouse, six daily injections, FIG. 7A)	neovascular complex in laser spots, confocal micrograph ([1]; i.p. injection)	reduction of CNV size compared to control mice [1] [%]	decrease in CNV size compared to control mice [1, 3] [%]	neovascular complex in laser spots, confocal micrograph ([1]; intravitreal injection)	decrease in CNV size compared to control mice ([1]; intravitreal injection)	effect on CNV size compared among adiponectin peptides (words) [1]	effect on CNV size compared among adiponectin peptides (words) ([1]; listed as 18 mer synthetic peptide)	VEGF expression in the choroids of laser-treated mice [2]	decrease in CNV size compared to control mice ([1]; intravitreal injection, listed as APN) [%]
NH2-LQVYGDGDHNGLYADNVN-COOH (H-LQVYGDGDHNGLYADNVN-OH) [18 mer peptide, 18 mer synthetic peptide, amino acid residues 216-233 of mouse adiponectin globular domain]	significant reduction	significant reduction	significantly inhibited	70	~80	significantly inhibited	about 70%	as effective as the intact adiponectin protein	reduced the size of CNV similarly		
B1			significantly inhibited	70	80		about 70%	reduced the size of CNV similarly		inhibited VEGF expression	70
